For one data set, the system named is interferon. The experiment in a line: Interferon-inducing activity in mice (titers in blood). The format is in vivo, BALB mice. The following applies: for Interferon titer: dose (mg/kg): cycloferone 200, thylorone 50, prototype 400-600. On the procedure: At predetermined time intervals interferon titers were measured in the blood by conventional techniques on homologous cells […] grown in 96-well plates in a CO2 -containing incubator. The test-virus was the encephalomyocarditis virus.

For data set [1], the system named is ristal-strain mongrel white mice. Put plainly: in vivo. How it is done: (§1) Intravenous and intramuscular injections were given of 2000 mg/kg and less in two stages. The follow-up period was 14 days. The lethal dose (LD50) was calculated by the Kerber technique. […] 31, 1987.
A further data set is described as follows: in vivo. The following applies: mouse, in vivo. How it is done: as §1
In data set [2] the test system is human immunodeficiency virus (HIV). The following applies: 0.08 mg/ml.
Method: The cells were grown at the Russian Medical University (RMU) in tube medium--1640 containing 20% calf foetal serum at end concentration of 0.5-0.7×10^6 cells/ml. […] The cells were then incubated for 3-4 days at 37° C. with subsequent replacement of nutrient medium. On the fifth and seventh day after infection, the presence of virus-specific antigen was established through indirect immunofluorescence assay using anti-HIV antibodies.
A further data set has as its system B-lymphocytes. The experiment in a line: Interferon induction in cell culture, B-lymphocytes. In kind it is cell-based, BALB mice. The source says: (§2) The initial concentration was 5×10^6 cells/milliliter. The dynamics of interferon accumulation were studied in the cultural fluid of the lymphocytes grown on plastic plates in the presence of CO2.
A further data set has as its system hepatocytes (liver). Put plainly: Anti-promotive activity: hepatocytic cohesion. The format is in vivo, BALB/c mice. On the procedure: Studies were performed on female BALB/c mice weighing 25.0 grams.
The compounds were administered daily for 6 days in optimal doses. Controls were given physiological solution. Six hours after the last injection the animals were sacrificed. Sections of the lung and liver were cut out, submerged in 199 medium, and cellular cohesion was measured. Measurements were performed with a micro-manipulator by modified Kuman technique. See Modianova E. A., Voprosy onkologii, 19(6): 83-88 (1973).
For each experimental point, cellular cohesion was measured in 4-5 mice. One tissue segment from each of the mice measuring 10-30 cells was examined.

The subject of data set [3] is Peripheral-blood lymphocytes. The experiment in a line: Interferon induction in cell culture, peripheral-blood lymphocytes. The format is cell-based, BALB mice.
Excerpt: as §2

In another data set the test system is T-lymphocytes. Put plainly: Interferon induction in cell culture, T-lymphocytes. The format is cell-based, BALB mice.
Excerpt: as §2

A further data set deals with Splenocytes. Put plainly: Interferon induction in cell culture, splenocytes. The format is cell-based, BALB mice.
Excerpt: as §2

Another data set concerns C trachomatis. The following applies: 100 mg/kg daily for 5 days.

Structures can show the parent of a compound that is named as a salt. Where two headings read alike, the source gives them in different places.

In general, LD50 refers to the dose expected to kill half of the subjects tested.

Method for C trachomatis: Experiments were performed involving C trachomatis infection of non-line whim mice weighing 16-18 grams. […] Alternatively, a single tetracycline hydrochloride injection (100 mg/kg) was administered on conventional schedule for 5 days.
Therapeutic effectiveness was evaluated by cytoscopic examination of stained smears from lymph nodes and the lung for pathogenic multiplication.

As for `CN(C)CCOC(=O)Cn1c2ccccc2c(=O)c2ccccc21` [10-carboxymethyl-9-acridone dimethyl-aminoethylether chlorhydrate], the Interferon titer with interferon (2 hours) is given as 100 IU/ml; in the data set with interferon (4 hours), 1000 IU/ml. Further, in the data set on interferon (words, vs cycloferone), the “interferonogenic activity compared to the compound of the present invention” value is recorded as “lower interferonogenic activity”. The “toxicity upon parenteral application” value in data set [1] (parenteral) is on record as “low-toxicity”. In data set [1] (words, vs cycloferone), the “level of toxicity compared to the compound of the present invention” value is “same level of toxicity”. In addition, the LD50 at 336 h in the data set “in vivo” (im) came to 600 mg/kg; in the data set “in vivo” (iv) it was 400 mg/kg.

For `Cc1cn([C@H]2C[C@H](N=[N+]=[N-])[C@@H](CO)O2)c(=O)[nH]c1=O` [Azidothymidine, azidothymidine], the figures for the “Number of cells containing HIV antigen by IIFR” value in data set [2] (Day 5) and in [2] (Day 7) were 6.5% and 4.7%, respectively.

For `CCN(CC)CCOc1ccc2c(c1)C(=O)c1cc(OCCN(CC)CC)ccc1-2` [Thylorone], the Interferon titer in the data set with B-lymphocytes (24 hr) is 15; with B-lymphocytes (48 hr) it was 30; in the data set on B-lymphocytes (72 hr), 320; in the data set on B-lymphocytes (96 hr), < 10; in the data set on B-lymphocytes (120 hr), < 10; in the data set with B-lymphocytes (144 hr) it was 5. For the same molecule, the Interferon titer with interferon (1 hour) was < 40 IU/ml; in the data set with interferon (2 hours), < 40 IU/ml; in the data set with interferon (4 hours), < 40 IU/ml; with interferon (8 hours), 40 IU/ml; in the data set on interferon (18 hours) it was 640 IU/ml; in the data set on interferon (24 hours), 20 IU/ml. For the same molecule, the Interferon titer is given as < 10 IU/ml in the data set with interferon (48 hours); 40 in [3] (24 hr); 80 in data set [3] (48 hr); 320 in [3] (72 hr); 80 in data set [3] (96 hr); 10 in data set [3] (120 hr). For the same molecule, the Interferon titer is < 10 in data set [3] (144 hr); 15 in the data set on T-lymphocytes (24 hr); 60 in the data set on T-lymphocytes (48 hr); 5000 in the data set with T-lymphocytes (72 hr); 3600 in the data set on T-lymphocytes (96 hr); 960 in the data set with T-lymphocytes (120 hr). Moreover, the Interferon titer in the data set with T-lymphocytes (144 hr) was 5; in the data set on Splenocytes (24 hr) it was 15; with Splenocytes (48 hr), 30; with Splenocytes (72 hr), 640; with Splenocytes (96 hr) it was 320; in the data set on Splenocytes (120 hr), 15. Moreover, the Interferon titer in the data set with Splenocytes (144 hr) is recorded as < 5. In the data set with hepatocytes (liver) (Intraperitoneal, 10.0 mg/kg, P >0.05), the “Hepatocytic Cohesion” value is given as 0.053 ± 0.008 mg/1 cell. Further, the “hepatocytic cohesion indices compared to controls” value with hepatocytes (liver) (words, vs controls) is “the same as in the controls”.

In the case of `CN(C)C1C(=O)C(C(N)=O)=C(O)C2(O)C(=O)C3=C(O)c4c(O)cccc4C(C)(O)C3CC12` (stereo not shown) [Tetracycline hydrochloride, tetracycline hydrochloride], the “Effectiveness Index” value in the data set on C trachomatis (lung, 3 days) turned out to be 1.8; with C trachomatis (lung, 7 days), 1.0; in the data set on C trachomatis (lymph nodes, 3 days) it was 0.9; in the data set with C trachomatis (lymph nodes, 7 days), 0.6.
